Reference: patent US11420970B1 (NOVARTIS AG, priority 2019, dated 2022)
Like-named read-outs stand apart in the source and are kept apart here.

Columns and labels:
[1] = system: cellular H3K36me2 level in multiple myeloma cell line KMS11 (t(4;14)+); assay: H3K36me2 cellular FRET assay in KMS11-Par line; format: cell-based; details: Homo sapiens, KMS-11, KMS11-Par line, FRET, read-out: H3K36me2 FRET in KMS11-Par
Protocol: H3K36Me2 Cellular FRET Assay in KMS11-Par Line
Fluorescence Resonance Energy Transfer (FRET) assay was used to test the ability of candidate compound to reduce cellular H3K36me2 level in multiple myeloma cell line KMS11 (t(4;14)+) (Horizon Discovery Ltd.).
Cells were treated with tested compounds at the desired concentration for 48 hours. […] Histone extract was incubated with Eu labeled anti-H3K36me2 antibody (abcam #ab ab9049) and d2 labeled anti-H3 antibody (abcam #ab1791) for 1 hour at room temperature. A Eu labeled anti-H3 antibody (CISBIO #64CUS000) was used for loading control. The abundancy of H3K36me2 or total H3 was measured by fluorescence signal on Perkin Elmer Envison machine.

[2] = system: cellular H3K36me2 level in multiple myeloma cell line KMS11 (t(4;14)+); assay: H3K36me2 cellular ELISA assay in KMS11-Par line; format: cell-based; details: Homo sapiens, KMS-11, ELISA, read-out: H3K36me2 ELISA in KMS11-Par
Summary of the method: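 After 72 h compound exposure, HCl-extracted histones from KMS11 (t(4;14)+) cells were probed by ELISA for H3K36me2 against total H3 with a chemiluminescence read-out. Cells were plated at 1,250/well in Opti-MEM plus B-27 and N2 the day before. A parallel CellTiter-Glo plate tracked viability.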

[3] = target: NSD2 [1-1365] (Homo sapiens (Human), UniProt O96028); assay: LC-MS/MS-based NSD2 enzymatic assay (SAH production); format: biochemical; details: read-out: NSD2 IC50
Sequence of NSD2 [1-1365] (O96028 whole entry): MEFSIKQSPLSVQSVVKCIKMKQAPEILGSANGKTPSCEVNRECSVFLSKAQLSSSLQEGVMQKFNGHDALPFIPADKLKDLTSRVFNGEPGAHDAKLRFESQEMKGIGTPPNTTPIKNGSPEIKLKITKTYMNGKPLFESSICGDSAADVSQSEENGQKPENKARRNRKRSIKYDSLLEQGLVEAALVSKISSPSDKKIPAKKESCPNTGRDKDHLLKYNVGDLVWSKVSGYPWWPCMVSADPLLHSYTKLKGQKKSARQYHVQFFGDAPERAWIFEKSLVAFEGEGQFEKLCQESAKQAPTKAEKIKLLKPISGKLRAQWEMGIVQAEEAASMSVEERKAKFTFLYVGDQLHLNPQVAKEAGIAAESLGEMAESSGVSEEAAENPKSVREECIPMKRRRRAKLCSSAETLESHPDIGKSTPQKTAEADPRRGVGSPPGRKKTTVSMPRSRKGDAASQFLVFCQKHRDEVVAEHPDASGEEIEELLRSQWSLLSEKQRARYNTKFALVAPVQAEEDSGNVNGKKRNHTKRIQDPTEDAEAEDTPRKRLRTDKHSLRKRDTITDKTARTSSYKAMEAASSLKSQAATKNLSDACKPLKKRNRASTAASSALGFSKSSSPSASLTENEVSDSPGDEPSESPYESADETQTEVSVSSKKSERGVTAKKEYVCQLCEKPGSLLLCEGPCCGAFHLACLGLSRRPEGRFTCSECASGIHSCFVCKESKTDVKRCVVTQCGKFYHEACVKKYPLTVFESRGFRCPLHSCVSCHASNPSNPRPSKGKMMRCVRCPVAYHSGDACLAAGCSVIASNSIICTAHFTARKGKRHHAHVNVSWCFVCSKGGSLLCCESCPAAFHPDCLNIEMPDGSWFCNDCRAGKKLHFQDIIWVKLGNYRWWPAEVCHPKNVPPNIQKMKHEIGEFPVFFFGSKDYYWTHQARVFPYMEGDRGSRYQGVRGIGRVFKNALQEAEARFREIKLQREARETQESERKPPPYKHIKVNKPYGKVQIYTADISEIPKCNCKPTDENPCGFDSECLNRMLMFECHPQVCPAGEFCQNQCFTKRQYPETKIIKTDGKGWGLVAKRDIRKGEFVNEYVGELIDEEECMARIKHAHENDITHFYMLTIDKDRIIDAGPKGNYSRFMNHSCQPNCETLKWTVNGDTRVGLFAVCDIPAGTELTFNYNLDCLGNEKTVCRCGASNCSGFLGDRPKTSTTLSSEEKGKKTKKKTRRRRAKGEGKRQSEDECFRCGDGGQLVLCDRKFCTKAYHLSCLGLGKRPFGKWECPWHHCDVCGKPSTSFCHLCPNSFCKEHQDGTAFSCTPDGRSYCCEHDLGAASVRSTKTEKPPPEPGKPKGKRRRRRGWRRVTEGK
Summary of the method: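 SAH formed was measured by LC-MS/MS using d4-SAH as internal standard and an SAH calibration curve. Compounds were preincubated 20 min with NSD2 [1-1365] and SAM; mouse-liver nucleosome then started a 90 min room-temperature reaction (8 nM enzyme, 1 μM SAM, 400 nM nucleosome final, pH 8.0), stopped with TFA.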

[4] = system: cellular H3K36me2 level in thyroid carcinoma cell line CGTH-W-1 (NSD2 E1099K); assay: H3K36me2 cellular ELISA assay in CGTH-W-1 line; format: cell-based; details: Homo sapiens, CGTH-W-1, 72 h, read-out: H3K36me2 ELISA in CGTH-W-1
Summary of the method: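 After 72 h compound treatment of NSD2 E1099K-mutant CGTH-W-1 cells, H3K36me2 and total H3 were quantified by ELISA with chemiluminescent read-out. A parallel-seeded plate gave cell viability by CellTiter-Glo.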

[5] = NSD2 biochemical activity, class symbols
[6] = KMS11-Par line (t(4;14)+), 72 hours treatment

| SMILES | IC50 ([1]; cellular H3K36me2 level) | IC50 [3, 5] | further results |
| --- | --- | --- | --- |
| COc1ccc(-c2cc(Cn3cnc4c(N)ncnc43)c(N3CCCC(N)(C(C)F)C3)cn2)cc1F (centres unmarked) [Example 295, 9-((5-(3-amino-3-(1-fluoroethyl)piperidin-1-yl)-2-(3-fluoro-4-methoxyphenyl)pyridin-4-yl)methyl)-9H-purin-6-amine] | – | – | IC50 [1]: 2330 nM; IC50 ([2]; KMS11-Par line, 72 hours): 1860 nM; IC50 [3]: 10 to 1000 nM |
| COc1ccc(-c2cc(Cn3cnc4c(N)ncnc43)c(N3CCC[C@](N)(CC(F)F)C3)cn2)cc1F [Example 61, (S)-9-((5-(3-amino-3-(2,2-difluoroethyl)piperidin-1-yl)-2-(3-fluoro-4-methoxyphenyl)pyridin-4-yl)methyl)-9H-purin-6-amine] | 1420 nM | 10 to 1000 nM | IC50 [4]: 643 nM |
| CNC(=O)CC1(N)CCCN(c2cnc(-c3ccc(F)c(F)c3)cc2Cn2cnc3c(N)nccc32)C1 (centres unmarked) [Example 72, 2-(3-amino-1-(4-((4-amino-1H-imidazo[4,5-c]pyridin-1-yl)methyl)-6-(3,4-difluorophenyl)pyridin-3-yl)piperidin-3-yl)-N-methylacetamide] | 250000 nM | 10 to 1000 nM | – |
| Nc1ncnc2c1ncn2Cc1cc(-c2ccc(F)cc2)ncc1N1CCC[C@](N)(COC2CCC2)C1 [Example 36, (R)-9-((5-(3-amino-3-(cyclobutoxymethyl)piperidin-1-yl)-2-(4-fluorophenyl)pyridin-4-yl)methyl)-9H-purin-6-amine] | 416 nM | 10 to 1000 nM | – |
| Nc1ncnc2c1ncn2Cc1cc(-c2ccccc2F)ncc1N1CC[C@@H](F)[C@@H](N)C1 [Example 2, 9-((5-((3S,4R)-3-amino-4-fluoropiperidin-1-yl)-2-(2-fluorophenyl)pyridin-4-yl)methyl)-9H-purin-6-amine] | 11100 nM | 10 to 1000 nM | – |
| N#Cc1ccc(-c2cc(Cn3cnc4c(N)ncnc43)c(N3CCC[C@@H](N)C3)cn2)cc1Cl [Example 7, (R)-4-(4-((6-amino-9H-purin-9-yl)methyl)-5-(3-aminopiperidin-1-yl)pyridin-2-yl)-2-chlorobenzonitrile] | 15100 nM | 10 to 1000 nM | – |
| COc1ccc(-c2cc(Cn3cnc4c(N)ncnc43)c(N3CC[C@@H](F)[C@@H](N)C3)cn2)cc1F [Example 5, 9-((5-((3S,4R)-3-amino-4-fluoropiperidin-1-yl)-2-(3-fluoro-4-methoxyphenyl)pyridin-4-yl)methyl)-9H-purin-6-amine] | 6460 nM | 10 to 1000 nM | IC50 [4]: 1770 nM |
| COc1ccc(-c2cc(Cn3cnc4c(N)ncnc43)c(N3CC[C@@H](F)[C@@H](N)C3)cn2)c(F)c1 [Example 10, 9-((5-((3S,4R)-3-amino-4-fluoropiperidin-1-yl)-2-(2-fluoro-4-methoxyphenyl)pyridin-4-yl)methyl)-9H-purin-6-amine] | 7630 nM | 10 to 1000 nM | – |
| CN(C)C(=O)C[C@@]1(N)CCCN(c2cnc(-c3ccc(F)c(F)c3)cc2Cn2cnc3c(N)nccc32)C1 [Example 59, (S)-2-(3-amino-1-(4-((4-amino-1H-imidazo[4,5-c]pyridin-1-yl)methyl)-6-(3,4-difluorophenyl)pyridin-3-yl)piperidin-3-yl)-N,N-dimethylacetamide] | 33300 nM | 1 to 10 nM | – |

More lines, main results first:

| IC50 ([1]; cellular H3K36me2 level) | IC50 [3, 5] | SMILES | further results |
| --- | --- | --- | --- |
| 450 nM | 1 to 10 nM | Nc1ncnc2c1ncn2Cc1cc(-c2ccc(F)c(F)c2)ncc1N1CCC[C@](N)(Cc2ccccn2)C1 [Example 54, (S)-9-((5-(3-amino-3-(pyridin-2-ylmethyl)piperidin-1-yl)-2-(3,4-difluorophenyl)pyridin-4-yl)methyl)-9H-purin-6-amine] | IC50 [2, 6]: 780 nM |
| 1090 nM | 10 to 1000 nM | Nc1ncnc2c1ncn2Cc1cc(-c2ccc(F)c(F)c2)ncc1N1CCC[C@](N)(COC(F)F)C1 [Example 41, (R)-9-((5-(3-amino-3-((difluoromethoxy)methyl)piperidin-1-yl)-2-(3,4-difluorophenyl)pyridin-4-yl)methyl)-9H-purin-6-amine] | IC50 [2, 6]: 2310 nM |
| 1620 nM | 10 to 1000 nM | Nc1ncnc2c1ncn2Cc1cc(-c2ccc(F)cc2)ncc1N1CCC[C@](N)(COC(F)F)C1 [Example 44, (R)-9-((5-(3-amino-3-((difluoromethoxy)methyl)piperidin-1-yl)-2-(4-fluorophenyl)pyridin-4-yl)methyl)-9H-purin-6-amine] | – |
| 849 nM | 10 to 1000 nM | Nc1ncnc2c1ncn2Cc1cc(-c2ccc(F)cc2)ncc1N1CCC[C@](N)(CC(F)F)C1 [Example 71, (S)-9-((5-(3-amino-3-(2,2-difluoroethyl)piperidin-1-yl)-2-(4-fluorophenyl)pyridin-4-yl)methyl)-9H-purin-6-amine] | – |
| 956 nM | 10 to 1000 nM | COc1ccc(-c2cc(Cn3cnc4c(N)ncnc43)c(N3CCC[C@](N)(C(=O)OC(C)(C)C)C3)cn2)cc1F [Example 83, tert-butyl (R)-3-amino-1-(4-((6-amino-9H-purin-9-yl)methyl)-6-(3-fluoro-4-methoxyphenyl)pyridin-3-yl)piperidine-3-carboxylate] | – |
| 248 nM | 1 to 10 nM | COC[C@@]1(N)CCCN(c2cnc(-c3cc(Cl)ccc3F)cc2Cn2cnc3c(N)ncnc32)C1 [Example 26, (R)-9-((5-(3-amino-3-(methoxymethyl)piperidin-1-yl)-2-(5-chloro-2-fluorophenyl)pyridin-4-yl)methyl)-9H-purin-6-amine] | IC50 [2, 6]: 375 nM |
| 160 nM | 1 to 10 nM | COC[C@@]1(N)CCCN(c2cnc(-c3ccc(F)c(F)c3)cc2Cn2cnc3c(N)ncnc32)C1 [Example 23, (R)-9-((5-(3-amino-3-(methoxymethyl)piperidin-1-yl)-2-(3,4-difluorophenyl)pyridin-4-yl)methyl)-9H-purin-6-amine] | – |
| 214 nM | 1 to 10 nM | Nc1ncnc2c1ncn2Cc1cc(-c2ccc(F)c(F)c2)ncc1N1CCC[C@](N)(COC2CC2)C1 [Example 22, (R)-9-((5-(3-amino-3-(cyclopropoxymethyl)piperidin-1-yl)-2-(3,4-difluorophenyl)pyridin-4-yl)methyl)-9H-purin-6-amine] | – |
| 2640 nM | 1 to 10 nM | Nc1ncnc2c1ncn2Cc1cc(-c2cccc(F)c2)ncc1N1CCC[C@](N)(CC(=O)O)C1 [Example 58, (S)-2-(3-amino-1-(4-((6-amino-9H-purin-9-yl)methyl)-6-(3-fluorophenyl)pyridin-3-yl)piperidin-3-yl)acetic acid] | – |
| 614 nM | 10 to 1000 nM | CC(C)OC[C@@]1(N)CCCN(c2cnc(-c3ccc(F)cc3)cc2Cn2cnc3c(N)ncnc32)C1 [Example 37, (R)-9-((5-(3-amino-3-(isopropoxymethyl)piperidin-1-yl)-2-(4-fluorophenyl)pyridin-4-yl)methyl)-9H-purin-6-amine] | IC50 [2, 6]: 1400 nM |
| 2400 nM | 10 to 1000 nM | CO/N=C(\C)C1(N)CCCN(c2cnc(-c3ccc(OC)c(F)c3)cc2Cn2cnc3c(N)ncnc32)C1 (centres unmarked) [Example 96, (E)-1-(3-amino-1-(4-((6-amino-9H-purin-9-yl)methyl)-6-(3-fluoro-4-methoxyphenyl)pyridin-3-yl)piperidin-3-yl)ethan-1-one O-methyl oxime] | – |
| 1240 nM | 10 to 1000 nM | Nc1ncnc2c1ncn2Cc1cc(-c2ccc(F)c(F)c2)ncc1N1CCC[C@](N)(COCC(F)(F)F)C1 [Example 43, (R)-9-((5-(3-amino-3-((2,2,2-trifluoroethoxy)methyl)piperidin-1-yl)-2-(3,4-difluorophenyl)pyridin-4-yl)methyl)-9H-purin-6-amine] | – |
| 995 nM | 1 to 10 nM | COc1ccc(-c2cc(Cn3cnc4c(N)ncnc43)c(N3CCC[C@](N)(COC(C)C)C3)cn2)cc1F [Example 25, (R)-9-((5-(3-amino-3-(isopropoxymethyl)piperidin-1-yl)-2-(3-fluoro-4-methoxyphenyl)pyridin-4-yl)methyl)-9H-purin-6-amine] | – |
| 4950 nM | 1 to 10 nM | COc1ccc(-c2cc(Cn3cnc4c(N)ncnc43)c(N3CCC[C@](N)(C(=O)N(C)C)C3)cn2)cc1F [Example 80, (R)-3-amino-1-(4-((6-amino-9H-purin-9-yl)methyl)-6-(3-fluoro-4-methoxyphenyl)pyridin-3-yl)-N,N-dimethylpiperidine-3-carboxamide] | – |
